Here are results for 37 compounds from patent US20190133122A1, “FUNGICIDAL OR BACTERICIDAL COMPOSITION AND METHOD FOR CONTROLLING DISEASE” (Nissan Chemical Corporation, priority 2016, published 2019).

Structures can show the parent of a compound that is named as a salt.

One test relates to cucumber gray mold fungus (Botrytis cinerea). Description: Preventive test against gray mold (sprayed cucumber cotyledon, cut leaf inoculated). It is filed as in vivo. To be noted: 1 ppm, active ingredient B alone; cucumber leaf, 20° C., 3 days after inoculation. As for the experimental part:
Such an agent was diluted with water to a predetermined concentration to obtain a test solution. Then, cucumber (variety: Sagami-hanjiro) was planted in a plastic pot of 90 cm^3, and in the cotyledon stage, 5 ml of the obtained test solution, was sprayed by a spray gun and air-dried. Thereafter, the treated leaf was cut off and placed in a plastic container which filled approximately 0.5 cm in depth water. A suspension of conidia of cucumber gray mold fungus (Botrytis cinerea) and a dissolved PDA culture medium were mixed at a ratio of 1:1 (mass ratio), and the mixture was dropped to inoculate the treated leaf with 30 μl. After the inoculation, the plastic container was sealed and left at 20° C. for 3 days, the ratio of the formed lesion occupying the inoculated leaf was measured, and the preventive value (observed value) was calculated in accordance with the following calculation formula.
Preventive value=[1−(treated plot lesion area ratio/untreated plot lesion area ratio)]×100
Further, from the preventive value at each agent concentration, a theoretical value expected by treatment of the mixing (theoretical value) was calculated by using the Colby method (Colby S. R. 1967, Weeds 15, 20-22), in order to analyze synergy. The calculation method is as follows.
X: preventive value of A agent (test solution obtained from active ingredient A) at x concentration
Y: preventive value of B agent (test solution obtained from active ingredient B) at y concentration
E: theoretical value expected by treatment of the mixture of A agent and B agent.
In the observed value and the theoretical value, calculated as the above, the obtained result is analyzed to be synergy if the observed value is larger than the theoretical value, to be antagonism if the theoretical value is larger than the observed value, and to be an additive effect if the observed value and the theoretical value are the same.
`O=C(Nc1ccccc1-c1ccc(F)c(F)c1)c1nccnc1C(F)(F)F` [Compound No. C50, pyraziflumid]: the Preventive value stood at 70.

Consider `CON(C(=O)c1cn(C)nc1C(F)F)C(C)Cc1c(Cl)cc(Cl)cc1Cl` (stereo not shown) [Compound No. C49, pydiflumetofen], for which the Preventive value is given as 45.

The same test, now with this note: 5 ppm, active ingredient B alone; cucumber leaf, 20° C., 3 days after inoculation.
As to `C=CCSC(=O)n1c(N)c(-c2ccccc2C)c(=O)n1C(C)C` [Compound No. H50, fenpyrazamine], the Preventive value came out at 56.

Staying with this test, now noted: 10 ppm, active ingredient B alone; cucumber leaf, 20° C., 3 days after inoculation.
Turning to `CNC(=O)/C(=N/OC)c1ccccc1CO/N=C(C)/C=C/c1c(Cl)cccc1Cl` [C25, fenaminstrobin], the Preventive value is recorded as 55.

Turning to `CC(O)(Cn1cncn1)c1ccc(Oc2ccc(Cl)cc2)cc1C(F)(F)F` (stereo not shown) [H51, mefentrifluconazole], the Preventive value was found to be 53.

`CC1(C)N=C(c2cnc3ccccc3c2)c2ccccc2C1(F)F` [M20, quinofumelin]: the Preventive value worked out at 60.

The same test, now with this note: 100 ppm, active ingredient B alone; cucumber leaf, 20° C., 3 days after inoculation.
As to `[Cl-].[Cu+2].[Cu+2].[OH-].[OH-].[OH-]` [L08, copper oxychloride], the Preventive value turned out to be 5.

As for `COCC(=O)N(c1c(C)cccc1C)[C@H](C)C(=O)OC` [A05, metalaxyl-M], the Preventive value came out at 5.

In the case of `COC(=O)N(OC)c1ccccc1COc1nc(Cl)c(Cl)cc1Cl` [C38, triclopyricarb], the Preventive value was determined as 69.

Turning to `CCSS(=O)(=O)CC` [M34, ethylicin], the Preventive value stood at 10.

Regarding `CO/C=C(/C(=O)OC)c1ccccc1CO/N=C(C)/C=C/c1ccc(Cl)cc1` [C22, enoxastrobin], the Preventive value is reported as 85.

For the compound Bacillus subtilis D747 strain [G13], the Preventive value was 28.

Turning to fosetyl-aluminium [M08], the Preventive value was found to be 10.

Take `C#CCOc1ccc(CCNC(=O)C(OCC#C)c2ccc(Cl)cc2)cc1OC` (stereo not shown) [I08, mandipropamid]: the Preventive value was found to be 10.

`Cn1c(=O)c2sc3c(=O)n(C)c(=O)c3sc2c1=O` [M23, dipymetitrone]: the Preventive value stood at 54.

As for `CN1OC(c2ccc(Cl)cc2)CC1(C)c1cccnc1` (stereo not shown) [H33, pyrisoxazole], the Preventive value was 9.

As for `C[C@H]1O[C@H](O[C@H]2[C@H](O)[C@@H](O)[C@@H](O)[C@H](O)[C@@H]2O)[C@@H](N)C[C@@H]1NC(=N)C(=O)O` [D05, kasugamycin], the Preventive value amounted to 28.

In the case of basic copper sulfate [L10], the Preventive value stood at 18.

The test is the same for the next values; noted with them: Botrytis cinerea, 72 h, read-out: Preventive value.
In the case of `Cc1nc2c(F)c(F)ccc2cc1Oc1cccc(F)c1C(C)(C)O` [M21, 2-(2-[(7,8-difluoro-2-methylquinolin-3-yl)oxy]-6-fluoro-phenyl)propan-2-ol], the pest or weed control at 1 ppm is 65%.

On to `Clc1ccc(CSC(Cn2cncn2)=Nc2ccc(Cl)cc2Cl)cc1` [H21, imibenconazole], for which the pest or weed control at 10 ppm is 20%.

Regarding `Cc1cccc(-n2nnn(C)c2=O)c1COc1ccn(-c2ccc(Cl)cc2)n1` [C51, 1-(2-[([1-(4-chlorophenyl)-1H-pyrazol-3-yl]oxy)-methyl]-3-methylphenyl)-4-methyl-1,4-dihydro-5H-tetrazol-5-one], the pest or weed control at 100 ppm was 48%.

As for `COCC(=O)N(c1c(C)cccc1C)N1CCOC1=O` [A07, oxadixyl], the pest or weed control at 100 ppm is 10%.

In the case of `S=C(S)NCCNC(=S)S` [L35, zineb], the pest or weed control at 100 ppm is 23%.

The same test, now with this note: Botrytis cinerea, 72 h; 10 ppm, active ingredient B alone; cucumber leaf, 20° C., 3 days after inoculation; read-out: Preventive value.
With `Cc1nnc(Cl)c(-c2c(F)cccc2F)c1-c1ccccc1` [M44, 3-chloro-4-(2,6-difluorophenyl)-6-methyl-5-phenyl-pyridazine], the pest or weed control at 10 ppm amounted to 28%.

For the compound `COC(=O)Nc1nc2ccccc2[nH]1` [B02, carbendazim], the pest or weed control at 10 ppm amounted to 85%.

The same test, now with this note: Botrytis cinerea, 72 h; 100 ppm, active ingredient B alone; cucumber leaf, 20° C., 3 days after inoculation; read-out: Preventive value.
For the compound `CN(C)C(=S)SSC(=S)N(C)C` [L21, thiram], the pest or weed control at 100 ppm worked out at 28%.

Regarding `CCCC1COC(Cn2cncn2)(c2ccc(Cl)cc2Cl)O1` (stereo not shown) [H30, propiconazole], the pest or weed control at 100 ppm came to 38%.

On to `Cc1ccc(-c2c(Cl)nc(C#N)n2S(=O)(=O)N(C)C)cc1` [C41, cyazofamid], for which the pest or weed control at 100 ppm amounted to 10%.

`CCNC(=O)NC(=O)/C(C#N)=N/OC` [M02, cymoxanil]: the pest or weed control at 100 ppm was 13%.

Regarding `CCCOC/C(=N\c1ccc(Cl)cc1C(F)(F)F)n1ccnc1` [H39, triflumizole], the pest or weed control at 100 ppm amounted to 10%.

In the case of `CCC(C)(NC(=O)c1cc(Cl)c(C)c(Cl)c1)C(=O)CCl` (stereo not shown) [B08, zoxamide], the pest or weed control at 100 ppm amounted to 15%.

For the compound `[H]/N=C(/N)N[C@H]1[C@H](O)[C@@H](O)[C@H](O[C@@H]2O[C@@H](C)[C@](O)(C=O)[C@H]2O[C@@H]2O[C@@H](CO)[C@H](O)[C@@H](O)[C@@H]2NC)[C@@H](N/C(N)=N\[H])[C@@H]1O` [D06, streptomycin], the pest or weed control at 100 ppm was determined as 13%.

On to `COc1ccc(C(=CC(=O)N2CCOCC2)c2ccc(Cl)cc2)cc1OC` [I05, dimethomorph], for which the pest or weed control at 100 ppm turned out to be 18%.

As to `OCC1=C[C@H](N[C@H]2C[C@H](CO)[C@@H](O[C@@H]3O[C@H](CO)[C@@H](O)[C@H](O)[C@H]3O)[C@H](O)[C@H]2O)[C@H](O)[C@@H](O)[C@@H]1O` [I01, validamycin], the pest or weed control at 100 ppm was found to be 10%.

Regarding `Cc1cc(O)no1` [A10, hymexazol], the pest or weed control at 100 ppm was found to be 10%.

As for `CC(C)(C)C(=O)C(Oc1ccc(Cl)cc1)n1cncn1` (stereo not shown) [H37, triadimefon], the pest or weed control at 100 ppm was found to be 38%.

With `CCCOC(=O)NCCCN(C)C` [G12, propamocarb hydrochloride], the pest or weed control at 100 ppm was found to be 15%.
